Laboratory results reported in US20230181581A1, “CIRCULATING B CELL SUBPOPULATIONS IN INDOLENT B CELL LYMPHOMA” (Alexion Pharmaceuticals, Inc., priority 2020, published 2023).
Where “and” joins values, the source holds several entries; their conditions need not be identical. Equal values may be shown once. Entries after “also recorded” stand apart in the source; their conditions may differ.

Tests used:
Format in all cases: in vivo, human
[1] = system: patients with indolent B cell lymphoma (iNHL); experiment: Phase IIa study: patient disposition (discontinuation, treatment duration) on single agent cerdulatinib; details: r/r iNHL, 30 mg BID
Experimental: (§1) This example describes a phase IIa study designed to determine the safety, efficacy, pharmacokinetics, and pharmacodynamics of cerdulatinib at the selected phase II dose of 30 mg BID, dosed in 28 day cycles, in patients with r/r B or T cell malignancies.
Up to 50 patients were enrolled in 5 cohorts; aggressive lymphoma, iNHL, CLL/SLL, PTCL (all receiving single agent cerdulatinib), and iNHL with cerdulatinib in combination with anti-CD20 therapy. Patients remained on drug until discontinuation due to progressive disease (PD), adverse event (AE), withdrawal of consent (WC), or at the discretion of the treating physician. […]

[2] = system: circulating B cell subsets; experiment: B cell subpopulation analysis of patient PBMC by flow cytometry over time on cerdulatinib
Experimental: (§2) Forty patients with iNHL were enrolled in a cohort receiving single agent cerdulatinib. From this cohort, 30 ml of whole blood was collected from each patient at pre-dose at baseline (C1), cycle 2 day 1 (C2), cycle 3 day 1 (C3), and cycle 6 day 1 (C6) in 10 ml mononuclear cell protection tubes (CPT tubes, BD Bioscience, San Jose, CA) and immediately centrifuged to separate mononuclear cells from plasma and red blood cells at each clinical site. At each time point, tubes were shipped for same day delivery to Caprion Biosciences, Montreal Canada, for preparation and live cell freezing of peripheral blood mononuclear cells (PBMC) by ficoll gradient centrifugation using standard procedures. Banked PBMC’s were stored at -80° C. until 5-8 patient samples through cycle 6 were obtained to enable batched flow cytometry analysis of B cell subsets for each patient over time.
PBMC’s were thawed and rested overnight in RPMI containing 10% fetal bovine serum. Cells were then stained with a cocktail containing Aqua live/dead cell stain (Life Technologies, Carlsbad, CA), and the following antibodies all obtained from BD Biosciences; CD19 PE-Cy7, CD20 BUV395, HLA-DR APC-Cy7, CD27 BV786, IgD PE, CD10 BV650, CD38 BV711, CD138 BV421, IgG BV605, and IgM APC. Cells were stained for 1 hour at room temperature, washed in phosphate buffered saline containing 0.5% bovine serum albumin, and subjected to flow cytometry using the BD Cantos. A maximum number of events was collected, the median number of total B cells collected was 18,789. The B cell subset gating strategy is described in FIG. 1.
Live B cells were then gated based on aqua viability stain and CD19. IgD and CD27 delineated double negative (DN), naïve, switched memory (SM), and non-switched memory (NSM). Within the naive cell area transitional B cells were identified based on CD10 expression. Within the SM area IgG and IgM switched B cells were identified. Plasma cells were identified based on high CD27 expression and CD138. Percent lymphocytes of total live PBMC’s were also calculated. All gating and calculation of B cell subset frequencies either from the total B cell gate or the immediate parent gate of a B cell subset were calculated using Flow Jo software (Tree Star, Inc., Ashland, OR), and analyzed.

[3] = system: patients with indolent B cell lymphoma (iNHL); experiment: Phase IIa study: clinical response (best response) to single agent cerdulatinib in r/r iNHL patients grouped by baseline B cell subsets; details: 30 mg BID
Experimental: as §1
Up to 50 patients were enrolled in 5 cohorts; aggressive lymphoma, iNHL, CLL/SLL, PTCL (all receiving single agent cerdulatinib), and iNHL with cerdulatinib in combination with anti-CD20 therapy. Patients remained on drug until discontinuation due to progressive disease (PD), adverse event (AE), withdrawal of consent (WC), or at the discretion of the treating physician.
as §2
A PCA analysis of the data was performed to identify subgroups of patients characterized by a common B cell phenotype. Subsequent analysis of the results of the PCA by hierarchical clustering was performed.

[4] = iNHL patients, baseline (C1) vs cycles 2, 3, 6, FIG. 5A

Structure (SMILES): CCS(=O)(=O)N1CCN(c2ccc(Nc3ncc(C(N)=O)c(NC4CC4)n3)cc2)CC1 [cerdulatinib, 4-(cyclopropylamino)-2-((4-(4-(ethylsulfonyl)piperazin-1-yl)phenyl)amino)pyrimidine-5-carboxamide]
- Discontinuation due to AE (adverse event), number of patients ([1]; G1 (N=9)): 4.00
- Discontinuation due to AE (adverse event), percent of patients ([1]; G1 (N=9)): 44.4%
- Discontinuation due to PD (progressive disease), number of patients ([1]; G1 (N=9)): 1.00
- Discontinuation due to PD (progressive disease), percent of patients ([1]; G1 (N=9)): 11.1%
- Discontinuation due to AE (adverse event), number of patients ([1]; G2 (N=16)): 1.00
- Discontinuation due to AE (adverse event), percent of patients ([1]; G2 (N=16)): 6.3%
- Discontinuation due to PD (progressive disease), number of patients ([1]; G2 (N=16)): 6.00
- Discontinuation due to PD (progressive disease), percent of patients ([1]; G2 (N=16)): 37.5%
- Discontinuation due to AE (adverse event), number of patients ([1]; G2 + G3 (N=29)): 3.00
- Discontinuation due to AE (adverse event), percent of patients ([1]; G2 + G3 (N=29)): 10.3%
- Discontinuation due to PD (progressive disease), number of patients ([1]; G2 + G3 (N=29)): 11.0
- Discontinuation due to PD (progressive disease), percent of patients ([1]; G2 + G3 (N=29)): 37.9%
- Discontinuation due to AE (adverse event), number of patients ([1]; G3 (N=13)): 2.00
- Discontinuation due to AE (adverse event), percent of patients ([1]; G3 (N=13)): 15.4%
- Discontinuation due to PD (progressive disease), number of patients ([1]; G3 (N=13)): 5.00
- Discontinuation due to PD (progressive disease), percent of patients ([1]; G3 (N=13)): 38.5%
- Discontinuation due to AE (adverse event), number of patients ([1]; Total (N=38)): 7.00
- Discontinuation due to AE (adverse event), percent of patients ([1]; Total (N=38)): 18.4%
- Discontinuation due to PD (progressive disease), number of patients ([1]; Total (N=38)): 12.0
- Discontinuation due to PD (progressive disease), percent of patients ([1]; Total (N=38)): 31.6%
- CD10 and CD38 expression on transitional B cells over time ([2]; iNHL patients on cerdulatinib, FIG. 5B representative Group 1 patient): loss of CD10 and CD38 expression
- Frequency of B cells of lymphocytes over time [2, 4]: did not change
- Frequency of CD10 negative (non-transitional) naïve B cells over time [2, 4]: rise and increase
- Frequency of total naïve B cells over time [2, 4]: did not change
- Frequency of transitional (CD10+) B cells of total B cells over time [2, 4]: decreased; also recorded: induces loss of transitional B cell phenotype
- Frequencies of switched memory or double negative B cells over time ([2]; iNHL patients, baseline (C1) vs cycles 2, 3, 6, FIG. 8): no meaningful impact; also recorded: does not impact
- Impact on the measured B cell populations ([2]; iNHL patients, over a period of 6 months on therapy): very little impact
- Best Response CR, number of patients ([3]; G1 (N=9)): 1.00
- Best Response CR, percent of patients ([3]; G1 (N=9)): 11.1%
- Best Response PD, number of patients ([3]; G1 (N=9)): 1.00
- Best Response PD, percent of patients ([3]; G1 (N=9)): 11.1%
- Best Response PR, number of patients ([3]; G1 (N=9)): 1.00
- Best Response PR, percent of patients ([3]; G1 (N=9)): 11.1%
- Best Response SD, number of patients ([3]; G1 (N=9)): 2.00
- Best Response SD, percent of patients ([3]; G1 (N=9)): 22.2%
- ORR (overall response rate), percent of patients ([3]; G1 (N=9)): 22% and 22.2%
- ORR + clinical benefit, number of patients ([3]; G1 (N=9)): 4.00
- ORR + clinical benefit, percent of patients ([3]; G1 (N=9)): 44.4%
- ORR, number of patients ([3]; G1 (N=9)): 2.00
- Best Response CR, number of patients ([3]; G2 (N=16)): 5.00
- Best Response CR, percent of patients ([3]; G2 (N=16)): 31.3%
- Best Response PD, number of patients ([3]; G2 (N=16)): 0 (0%)
- Best Response PD, percent of patients ([3]; G2 (N=16)): 0 (0%)
- Best Response PR, number of patients ([3]; G2 (N=16)): 8.00
- Best Response PR, percent of patients ([3]; G2 (N=16)): 50.0%
- Best Response SD, number of patients ([3]; G2 (N=16)): 1.00
- Best Response SD, percent of patients ([3]; G2 (N=16)): 6.3%
- ORR (overall response rate), percent of patients ([3]; G2 (N=16)): 81% and 81.3%
- ORR + clinical benefit, number of patients ([3]; G2 (N=16)): 14.0
- ORR + clinical benefit, percent of patients ([3]; G2 (N=16)): 87.5%
- ORR, number of patients ([3]; G2 (N=16)): 13.0
- Best Response CR, number of patients ([3]; G2 + G3 (N=29)): 6.00
- Best Response CR, percent of patients ([3]; G2 + G3 (N=29)): 20.7%
- Best Response PD, number of patients ([3]; G2 + G3 (N=29)): 3.00
- Best Response PD, percent of patients ([3]; G2 + G3 (N=29)): 10.3%
- Best Response PR, number of patients ([3]; G2 + G3 (N=29)): 14.0
- Best Response PR, percent of patients ([3]; G2 + G3 (N=29)): 48.3%
- Best Response SD, number of patients ([3]; G2 + G3 (N=29)): 4.00
- Best Response SD, percent of patients ([3]; G2 + G3 (N=29)): 13.8%
- ORR (overall response rate), percent of patients ([3]; G2 + G3 (N=29)): 69.0%
- ORR + clinical benefit, number of patients ([3]; G2 + G3 (N=29)): 24.0
- ORR + clinical benefit, percent of patients ([3]; G2 + G3 (N=29)): 82.8%
- ORR, number of patients ([3]; G2 + G3 (N=29)): 20.0
- Best Response CR, number of patients ([3]; G3 (N=13)): 1.00
- Best Response CR, percent of patients ([3]; G3 (N=13)): 7.7%
- Best Response PD, number of patients ([3]; G3 (N=13)): 3.00
- Best Response PD, percent of patients ([3]; G3 (N=13)): 23.1%
- Best Response PR, number of patients ([3]; G3 (N=13)): 6.00
- Best Response PR, percent of patients ([3]; G3 (N=13)): 46.2%
- Best Response SD, number of patients ([3]; G3 (N=13)): 3.00
- Best Response SD, percent of patients ([3]; G3 (N=13)): 23.1%
- ORR (overall response rate), percent of patients ([3]; G3 (N=13)): 53.8%
- ORR + clinical benefit, number of patients ([3]; G3 (N=13)): 10.0
- ORR + clinical benefit, percent of patients ([3]; G3 (N=13)): 76.9%
- ORR, number of patients ([3]; G3 (N=13)): 7.00
- Best Response CR, number of patients ([3]; Total (N=38)): 7.00
- Best Response CR, percent of patients ([3]; Total (N=38)): 18.4%
- Best Response PD, number of patients ([3]; Total (N=38)): 4.00
- Best Response PD, percent of patients ([3]; Total (N=38)): 10.5%
- Best Response PR, number of patients ([3]; Total (N=38)): 15.0
- Best Response PR, percent of patients ([3]; Total (N=38)): 39.5%
- Best Response SD, number of patients ([3]; Total (N=38)): 6.00
- Best Response SD, percent of patients ([3]; Total (N=38)): 15.8%
- ORR (overall response rate), percent of patients ([3]; Total (N=38)): 57.9%
- ORR + clinical benefit, number of patients ([3]; Total (N=38)): 28.0
- ORR + clinical benefit, percent of patients ([3]; Total (N=38)): 73.7%
- ORR, number of patients ([3]; Total (N=38)): 22.0
